From PMC11440508, “Dually Labeled Neurotensin NTS1R Ligands for Probing Radiochemical and Fluorescence-Based Binding Assays” (Journal of Medicinal Chemistry, 2024)

Experiments:
NTS1R = NTS1R (Homo sapiens, UniProt P30989); test: Radioligand competition binding with [^3H]UR-MK300 at intact HT-29 colon carcinoma cells; details: [^3H]UR-MK300, intact HT-29 cells, 23 °C; read-out: NTS1R pKi ± SEM (converted)
Experimental: NTS1R binding affinities were determined in a reported competition binding assay[13] using intact hNTS1R-expressing HT-29 colon carcinoma cells and [^3H]UR-MK300 (structure see Figure 1A) as radioligand (competition binding curves shown in Figure S4, Supporting Information).
NTS1R radioligand competition binding experiments with [^3H]UR-MK300 (molar activity: 2.41 TBq/mmol) and the peptides 6–9, 10a, 10b, 13–16, and 18 were performed with intact hNTS1R-expressing human HT-29 colon carcinoma cells at 23 ± 1 °C using a previously reported protocol.[13] […] Cells were seeded one day before the assay, yielding a confluency of at least 90% on the day of the experiment. Total binding data (including total binding in the absence of competitor) were plotted as dpm values against log(concentration competitor) and analyzed by a four-parameter logistic equation (log(inhibitor) vs response–variable slope, GraphPad Prism 5, GraphPad Software, San Diego, CA) to obtain pIC50 values. Individual pIC50 values were converted to pKi values according to the Cheng–Prusoff equation[60] (logarithmic form). To plot average data from individual binding experiments, data were normalized (100% = “top” of the four-parameter logistic fit, 0% = unspecifically bound radioligand).

[1] = Radiochemical purity after storage (RP-HPLC); type: physicochemical; details: stock solution, degradation by radiolysis
Experimental: Figure 2 (A) Radiochemical purities (>99%) of [^3H]13 and [^3H]18 directly after synthesis determined by RP-HPLC analysis. (B) Radiochemical purities of [^3H]13 and [^3H]18 determined 11 months after synthesis. The purities amounted to 92% ([^3H]13) and 80% ([^3H]18).
Over a period of 11 months, degradation of both dually labeled ligands by radiolysis was low (Figure 2B).
A solution of succinimidyl [^3H]propionate (molar activity: 3.89 TBq/mmol, purchased from Novandi, Södertälje, Sweden) (55.5 MBq, 0.75 mL, 14.3 nmol) in n-heptane/EtOAc 3:2 v/v was transferred from the delivered ampule into a 1.5 mL polypropylene reaction vessel with screw cap, and the solvent was removed in a vacuum concentrator (30 °C, ca. 30 min). […] To quantify the activity of the two radioligands and to determine the molar concentration, 2 × 2 μL of the preliminary stock solution were added to 998 μL of DMSO/H2O 3:7 v/v, and 4 × 10 μL of these dilutions were counted in 3 mL of liquid scintillator (Rotiscint Eco Plus, Carl Roth, Karlsruhe, Germany) with a Tri-Carb 3100TR liquid scintillation counter (PerkinElmer). […] The molar activity of the labeling reagent succinimidyl [^3H]propionate was determined by liquid chromatography–mass spectrometry (LC-MS) analysis. Coinjection of “cold” succinimidyl propionate allowed the quantification of the incorporated tritium (Novandi, Södertälje, Sweden). […]

Sequence of NTS1R (P30989 whole entry): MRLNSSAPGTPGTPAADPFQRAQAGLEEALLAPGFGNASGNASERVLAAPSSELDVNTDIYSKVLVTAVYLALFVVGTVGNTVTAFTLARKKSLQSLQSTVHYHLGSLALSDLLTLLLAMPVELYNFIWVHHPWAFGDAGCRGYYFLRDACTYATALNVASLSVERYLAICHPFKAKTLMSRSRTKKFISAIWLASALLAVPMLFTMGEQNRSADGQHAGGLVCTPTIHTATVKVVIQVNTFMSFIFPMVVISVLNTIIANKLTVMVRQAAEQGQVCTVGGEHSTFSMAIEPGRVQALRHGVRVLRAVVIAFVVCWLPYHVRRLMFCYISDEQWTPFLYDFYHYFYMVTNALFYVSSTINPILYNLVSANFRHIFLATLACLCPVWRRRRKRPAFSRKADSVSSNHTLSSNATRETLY

| Compound | Ki (NTS1R) | Radiochemical purity 11 months after synthesis [1] |
| --- | --- | --- |
| CCC(=O)NCCCCNC(=O)NC(=N)NCCC[C@H](NC(=O)[C@@H]1CCCN1C(=O)[C@@H](NC(=O)CCc1cn(CCCNC(=O)CCC#Cc2ccc3c(c2)C(C)(C)C2=C4C=C5C6=[N+](CCC5OC4CCN23)c2ccc(S(=O)(=O)[O-])cc2C6(C)C)nn1)C1CCNCC1)C(=O)N[C@@H](CCCNC(=N)N)C(=O)N1CCC[C@H]1C(=O)N[C@H](C(=O)N[C@H](C(=O)N[C@@H](CC(C)C)C(=O)O)[C@@H](C)CC)C(C)(C)c1ccc(O)cc1 (stereo partly drawn) [Compound 18, N^α-(3-(N-(1-(8-Sulfonato-5,5,27,27-tetramethyl-16-oxa-20-aza-12-azoniaheptacyclo[15.11.0.03,15.04,12.06,11.020,28.021,26]octacosa-1(28),2,4(12),6(11),7,9,21(26),22,24-nonaen-24-yl)-5-oxopentyn-5-yl)-1-aminoprop-3-yl-1H-1,2,3-triazol-4-yl)propanoyl)-2-(piperidin-4-yl)-Gly-Pro-N^ω-[(4-(N-propanoyl)aminobutyl)aminocarbonyl]Arg-Arg-Pro-β,β-dimethyl-L-Tyr-Ile-Leu Tris(hydrotrifluoroacetate)] | 4.07 nM | – |
| CCC(=O)NCCCCNC(=O)NC(=N)NCCC[C@H](NC(=O)[C@@H]1CCCN1C(=O)[C@@H](NC(=O)CCc1cn(CCCNC(=O)c2ccc(-c3c4ccc(=[N+](C)C)cc-4oc4cc(N(C)C)ccc34)c(C(=O)[O-])c2)nn1)C1CCNCC1)C(=O)N[C@@H](CCCNC(=N)N)C(=O)N1CCC[C@H]1C(=O)N[C@@H](Cc1ccc(O)cc1)C(=O)N[C@H](C(=O)N[C@@H](CC(C)C)C(=O)O)[C@@H](C)CC [[^3H]13] | – | 92% |
